Data published in the supplement of paper PMC10307832.

Assays:
Experiment in all cases: relative viability (nuclei count vs DMSO), 5 days (fraction); higher = more cells survive
Vemurafenib + Pictilisib = compound: CCCS(=O)(=O)Nc1ccc(F)c(C(=O)c2c[nH]c3ncc(-c4ccc(Cl)cc4)cc23)c1F [Vemurafenib] + CS(=O)(=O)N1CCN(Cc2cc3nc(-c4cccc5[nH]ncc45)nc(N4CCOCC4)c3s2)CC1 [Pictilisib] (partner 1 µM)
How it was run: (§1)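 One day after seeding in 1536-well plates, lung cancer cell lines were dosed by pin tool. Dosing was either single-drug or a fixed anchor-drug dose plus five library-drug doses (not always all listed) in √10 steps. After 5 days, nuclei were stained in one fix-and-stain step and counted on 4× images, and relative viability is the nuclei count of treated wells over that of vehicle wells, given as the median of duplicate plates.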

Vemurafenib + Linsitinib = compound: CCCS(=O)(=O)Nc1ccc(F)c(C(=O)c2c[nH]c3ncc(-c4ccc(Cl)cc4)cc23)c1F [Vemurafenib] + C[C@]1(O)C[C@@H](c2nc(-c3ccc4ccc(-c5ccccc5)nc4c3)c3c(N)nccn32)C1 [Linsitinib] (partner 1 µM)
How it was run: as §1

Alpelisib + OSI-027 = compound: Cc1nc(NC(=O)N2CCC[C@H]2C(N)=O)sc1-c1ccnc(C(C)(C)C(F)(F)F)c1 [Alpelisib] + COc1cccc2cc(-c3nc([C@H]4CC[C@H](C(=O)O)CC4)n4ncnc(N)c34)[nH]c12 [OSI-027] (partner 0.5 µM)
How it was run: as §1

Alpelisib + Phenformin = compound: Cc1nc(NC(=O)N2CCC[C@H]2C(N)=O)sc1-c1ccnc(C(C)(C)C(F)(F)F)c1 [Alpelisib] + N=C(N)NC(=N)NCCc1ccccc1 [Phenformin] (partner 250 µM)
How it was run: as §1

Cell Line	relative viability (Vemurafenib + Pictilisib; first compound 0.03162 µM)	relative viability (Vemurafenib + Pictilisib; first compound 0.1 µM)	relative viability (Vemurafenib + Pictilisib; first compound 0.3162 µM)	relative viability (Vemurafenib + Pictilisib; first compound 1 µM)	relative viability (Vemurafenib + Linsitinib; first compound 0.03162 µM)	relative viability (Vemurafenib + Linsitinib; first compound 0.1 µM)	relative viability (Vemurafenib + Linsitinib; first compound 0.3162 µM)	relative viability (Vemurafenib + Linsitinib; first compound 1 µM)	relative viability (Alpelisib + OSI-027; first compound 0.04 µM)	relative viability (Alpelisib + OSI-027; first compound 0.1265 µM)	relative viability (Alpelisib + OSI-027; first compound 0.4 µM)	relative viability (Alpelisib + OSI-027; first compound 1.265 µM)	relative viability (Alpelisib + OSI-027; first compound 4 µM)	relative viability (Alpelisib + Phenformin; first compound 0.04 µM)	relative viability (Alpelisib + Phenformin; first compound 0.1265 µM)	relative viability (Alpelisib + Phenformin; first compound 0.4 µM)	relative viability (Alpelisib + Phenformin; first compound 1.265 µM)	relative viability (Alpelisib + Phenformin; first compound 4 µM)
NCI-H2347	0.328	0.659	0.754	0.667	0.941	1.01	0.76	0.964	0.484	0.398	0.356	0.3	0.233	0.445	0.299	0.416	0.38	0.376
PC-14	0.584	–	0.805	0.696	0.93	–	0.922	0.995	0.865	0.83	0.985	0.574	0.467	0.653	0.406	0.67	0.54	0.526
LXF-289	0.711	0.724	0.698	0.758	0.877	0.919	0.992	1.04	0.725	0.626	0.685	0.567	0.427	0.482	0.527	0.513	0.481	0.482
NCI-H596	0.352	0.356	0.429	0.388	1.07	0.918	1.12	1.06	0.629	0.571	0.589	0.457	0.357	0.669	0.709	0.695	0.421	0.329
NCI-H358	0.291	–	0.417	0.299	0.686	–	1	0.79	0.558	0.767	0.572	0.292	0.121	0.309	0.321	0.338	0.242	0.16
